Converted amounts (≈) assume the structure as drawn. Where two headings read alike, the source gives them in different places.
Legend:
A. baumannii strains = experiment: microbe, parasite or virus in culture
Experimental: (§1) Twenty-six A. baumannii strains were clinically isolated and gifted to us by the Kyungpook National University School of Medicine. One A. baumannii strain (ATCC 17978) was purchased and gifted to us by Kyungpook National University School of Medicine. One A. baumannii strain and 10 K. pneumoniae strains (NCCP) were purchased from the National Culture Collection for Pathogens.
(§2) To assess antimicrobial activity, the MIC50 and MIC90 were measured using broth microdilution following CLSI guidelines. […] Each experiment was performed in triplicate. Meropenem (Sigma, Darmstadt, Germany) and colistin were used as control antibiotics. Cation-adjusted Mueller–Hinton broth (CAMHB) (Becton, Dickinson and Company, Franklin Lakes, USA) with supplied calcium (50 mg/L) and magnesium (10 mg/L) was used for the CLSI-test condition. Bacteria in midlog phase and peptides were separately diluted in CAMHB. The bacteria and peptide solutions were then mixed in 96-well polyethylene plates (SPL, Gyeonggi-do, Korea) and incubated for 18 h at 37 °C. The final concentration for bacteria was 5 × 10^5 CFU/ml. […] The MIC was defined to be the lowest concentration of peptide without visible turbidity by comparing with control antibiotics with the unaided eye. […] Each experiment was performed in triplicate. MICs in albumin and acetic acid solutions were measured using the same protocol but with 0.2% bovine serum albumin (Bovogen, Keilor, Australia), 0.01% acetic acid (Merck, New Jersey, USA), and CAMHB with both calcium and magnesium. In addition, MICs used in the antibiotic resistance acquisition test, the outer–inner membrane permeation test, and the transmembrane potential test and for FE-SEM were individually determined. The final bacterial concentrations used were as follows: for resistance acquisition, optical density (OD) 0.01; for outer–inner membrane permeability assays (LB), OD 0.1; for the transmembrane potential test, 1 × 10^8 CFU/ml (OD 0.171); […]. Inhibitory activity unidentifiable by direct observation was determined by counting the CFUs. Each experiment was performed at least twice.

K. pneumonia strains = experiment: microbe, parasite or virus in culture; conditions: Klebsiella pneumoniae
Experimental: as §1, §2

C[C@@H](O)[C@H]1C(=O)N2C(C(=O)O)=C(S[C@@H]3CN[C@H](C(=O)N(C)C)C3)[C@H](C)[C@H]12 [Meropenem]
MIC50 (A. baumannii strains; Acinetobacter baumannii): ≥ 20 µM
MIC90 (A. baumannii strains; Acinetobacter baumannii): ≥ 20 µM
MIC (A. baumannii strains; Acinetobacter baumannii, ATCC17978, read-out: MIC, A. baumannii ATCC 17978): < 0.31 µM
MIC (A. baumannii strains; Acinetobacter baumannii, KCCM40203, read-out: MIC, A. baumannii KCCM 40203): 5 µM (≈ 1.92 µg/mL)
MIC (A. baumannii strains; Acinetobacter baumannii, read-out: MIC, A. baumannii ATCC BBA 1605): > 20 µM
MIC (A. baumannii strains; Acinetobacter baumannii, read-out: MIC, A. baumannii Isolated strain 1): > 20 µM
MIC (A. baumannii strains; Acinetobacter baumannii, read-out: MIC, A. baumannii Isolated strain 3): > 20 µM
MIC (A. baumannii strains; Acinetobacter baumannii, read-out: MIC, A. baumannii Isolated strain 6): > 20 µM
MIC (A. baumannii strains; Acinetobacter baumannii, read-out: MIC, A. baumannii Isolated strain 10): > 20 µM
MIC (A. baumannii strains; Acinetobacter baumannii, read-out: MIC, A. baumannii Isolated strain 14): > 20 µM
MIC (A. baumannii strains; Acinetobacter baumannii, read-out: MIC, A. baumannii Isolated strain 15): < 0.31 µM
MIC (A. baumannii strains; Acinetobacter baumannii, read-out: MIC, A. baumannii Isolated strain 16): > 20 µM
MIC (A. baumannii strains; Acinetobacter baumannii, read-out: MIC, A. baumannii Isolated strain 19): > 20 µM
MIC (A. baumannii strains; Acinetobacter baumannii, read-out: MIC, A. baumannii Isolated strain 22): > 20 µM
MIC (A. baumannii strains; Acinetobacter baumannii, read-out: MIC, A. baumannii Isolated strain 39): > 20 µM
MIC (A. baumannii strains; Acinetobacter baumannii, read-out: MIC, A. baumannii Isolated strain 44): > 20 µM
MIC (A. baumannii strains; Acinetobacter baumannii, read-out: MIC, A. baumannii Isolated strain 66): > 20 µM
MIC (A. baumannii strains; Acinetobacter baumannii, read-out: MIC, A. baumannii Isolated strain 68): > 20 µM
MIC (A. baumannii strains; Acinetobacter baumannii, read-out: MIC, A. baumannii Isolated strain 69): > 20 µM
MIC (A. baumannii strains; Acinetobacter baumannii, read-out: MIC, A. baumannii Isolated strain 71): > 20 µM
MIC (A. baumannii strains; Acinetobacter baumannii, read-out: MIC, A. baumannii Isolated strain 76): > 20 µM
MIC (A. baumannii strains; Acinetobacter baumannii, read-out: MIC, A. baumannii Isolated strain 80): > 20 µM
MIC (A. baumannii strains; Acinetobacter baumannii, read-out: MIC, A. baumannii Isolated strain 82): > 20 µM
MIC (A. baumannii strains; Acinetobacter baumannii, read-out: MIC, A. baumannii Isolated strain 86): > 20 µM
MIC (A. baumannii strains; Acinetobacter baumannii, read-out: MIC, A. baumannii Isolated strain 89): > 20 µM
MIC (A. baumannii strains; Acinetobacter baumannii, read-out: MIC, A. baumannii Isolated strain 102): > 20 µM
MIC (A. baumannii strains; Acinetobacter baumannii, read-out: MIC, A. baumannii Isolated strain 127): > 20 µM
MIC (A. baumannii strains; Acinetobacter baumannii, read-out: MIC, A. baumannii Isolated strain 141): > 20 µM
MIC (A. baumannii strains; Acinetobacter baumannii, read-out: MIC, A. baumannii Isolated strain 144): > 20 µM
MIC (A. baumannii strains; Acinetobacter baumannii, read-out: MIC, A. baumannii Isolated strain 147): > 20 µM
MIC (A. baumannii strains; Acinetobacter baumannii, read-out: MIC, A. baumannii Isolated strain 152): > 20 µM
MIC (A. baumannii strains; Acinetobacter baumannii, read-out: MIC, A. baumannii NCCP 14654): > 20 µM
Number of A. baumannii strains at MIC (μM) 0.63 (A. baumannii strains; of 30 strains): 0
Number of A. baumannii strains at MIC (μM) 1.25 (A. baumannii strains; of 30 strains): 0
Number of A. baumannii strains at MIC (μM) 2.5 (A. baumannii strains; of 30 strains): 0
Number of A. baumannii strains at MIC (μM) 5 (A. baumannii strains; of 30 strains): 1
Number of A. baumannii strains at MIC (μM) 10 (A. baumannii strains; of 30 strains): 0
Number of A. baumannii strains at MIC (μM) ≤0.31 (A. baumannii strains; of 30 strains): 2
Number of A. baumannii strains at MIC (μM) ≥20 (A. baumannii strains; of 30 strains): 27
MIC (K. pneumonia strains; read-out: MIC, K. pneumonia NCCP 15782): > 20 µM
MIC (K. pneumonia strains; read-out: MIC, K. pneumonia NCCP 15864): > 20 µM
MIC (K. pneumonia strains; read-out: MIC, K. pneumonia NCCP 15866): > 20 µM
MIC (K. pneumonia strains; read-out: MIC, K. pneumonia NCCP 16052): > 20 µM
MIC (K. pneumonia strains; read-out: MIC, K. pneumonia NCCP 16124): > 20 µM
MIC (K. pneumonia strains; read-out: MIC, K. pneumonia NCCP 16125): > 20 µM
MIC (K. pneumonia strains; read-out: MIC, K. pneumonia NCCP 16128): 20 µM (≈ 7.67 µg/mL)
MIC (K. pneumonia strains; read-out: MIC, K. pneumonia NCCP 16208): > 20 µM
MIC (K. pneumonia strains; read-out: MIC, K. pneumonia NCCP 16212): > 20 µM
MIC (K. pneumonia strains; read-out: MIC, K. pneumonia NCCP 16213): > 20 µM

From article PMC9643456, “Matching amino acids membrane preference profile to improve activity of antimicrobial peptides” (Communications Biology, 2022)
